The source of these data is publication PMC10958880, “Pocket Crafter: a 3D generative modeling based workflow for the rapid generation of hit molecules in drug discovery” (Journal of Cheminformatics, 2024).

Format in all cases: binding
Experiment [1] has as its target T1, WDR5 (Homo sapiens, UniProt P61964). Kind of experiment: DSF (Tm shift -4.[…] °C) plus WDR5-MYC peptide HTRF displacement with counter assay. Further details: full-length WDR5 (DSF); N-His, 1–334 (HTRF).
The target in experiment [2] is T1, WDR5. Kind of experiment: DSF (Tm shift -1.[…] °C) plus WDR5-MYC peptide HTRF displacement with counter assay. More on the design: full-length WDR5 (DSF); N-His, 1–334 (HTRF).
The target in experiment [3] is T1, WDR5. Kind of experiment: WDR5-MYC peptide HTRF dose response, inactive in counter assay. Further details: N-His, 1–334; with MYC MbIIIb peptide (256–268 a.a.). In general terms: TR-FRET usually uses a lanthanide donor and a delayed reading to cut background.

Broadly, the IC50 is the concentration that gives 50% inhibition. In the case of `O=C(c1cc2ccccc2[nH]1)N1CCn2ncc(N3C[C@@H](CO)OC3=O)c2C1` [PC-1], at WDR5 [1], the IC50 came out at 35.6 µM.
As to `C[C@H]1Cc2noc(N3CCCCC3=O)c2CN1C(=O)c1cc2ccccc2[nH]1` [PC-2], the IC50 on WDR5 [2] stood at 27.5 µM.
`CC1(C)CN(c2cnn3c2CN(C(=O)c2cc4c([nH]2)CCCC4)CC3)C(=O)O1` [PC-3] gave an IC50 at WDR5 [3] of 28.5 µM.
